Among the data in patent US7384965B2, “Fused heterocyclic derivatives as PPAR modulators” (Eli Lilly and Company, priority 2003, dated 2008) are melting point values, retold here.

In general, melting point refers to the temperature of the solid-liquid transition. In turn, `Cc1cc(SC(C)c2ccc3nc(-c4ccc(C(F)(F)F)cc4)sc3c2)ccc1OCC(=O)O` (racemic) [Example 62, (+/−)-2-Methyl-4-{1-[2-(4-trifluoromethylphenyl)benzothiazol-6-yl]ethylsulfanyl}phenoxyacetic Acid] yielded a melting point of 170 to 173 °C.

As to `Cc1cc(SC(C)c2ccc3nc(-c4ccc(C(F)(F)F)cc4)sc3c2)ccc1CCC(=O)O` (racemic) [Example 63, (+/−)-3-(2-Methyl-4-{1-[2-(4-trifluoromethylphenyl)benzothiazol-6-yl]ethylsulfanyl}phenyl)propionic Acid], the melting point fell in the range of 159 to 161 °C.

Consider `CCC(Sc1ccc(CCC(=O)O)c(C)c1)c1ccc2nc(-c3ccc(C(F)(F)F)cc3)sc2c1` (racemic) [Example 64, (+/−)-3-(2-Methyl-4-{1-[2-(4-trifluoromethylphenyl)benzothiazol-6-yl]propylsulfanyl}phenyl)propionic Acid], for which the melting point lay within 105 to 108 °C.

In the case of `Cc1cc(SC(C)c2cccc3nc(-c4ccc(C(F)(F)F)cc4)oc23)ccc1OCC(=O)O` (racemic) [Example 79, (+/−)-2-Methyl-4-{1-[2-(4-trifluoromethylphenyl)benzooxazol-7-yl]ethylsulfanyl}phenoxyacetic Acid], the melting point fell in the range of 134 to 138 °C.

As to `Cc1cc(SC(C)c2cccc3nc(-c4ccc(C(F)(F)F)cc4)oc23)ccc1CCC(=O)O` (racemic) [Example 80, (+/−)-3-(2-Methyl-4-{1-[2-(4-trifluoromethylphenyl)benzooxazol-7-yl]ethylsulfanyl}phenyl)propionic Acid], the melting point lay within 128 to 130 °C.

As to `CCc1cc(SC(C)c2cccc3nc(-c4ccc(C(F)(F)F)cc4)oc23)ccc1OCC(=O)O` (racemic) [Example 81, (+/−)-2-Ethyl-4-{1-[2-(4-trifluoromethylphenyl)benzooxazol-7-yl]ethylsulfanyl}phenoxyacetic Acid], the melting point lay within 172 to 175 °C.

`CC(Sc1ccc2c(CC(=O)O)csc2c1)c1cccc2nc(-c3ccc(C(F)(F)F)cc3)oc12` (racemic) [Example 82, (+/−)-6-{1-[2-(4-Trifluoromethylphenyl)benzooxazol-7-yl]ethylsulfanyl}benzo[b]thiophen-3-ylacetic Acid] came in with a melting point of 195 to 198 °C.

Regarding `Cc1cc(OC(C)c2cccc3nc(-c4ccc(C(F)(F)F)cc4)oc23)ccc1CCC(=O)O` (racemic) [Example 83, (+/−)-3-(2-Methyl-4-{1-[2-(4-trifluoromethylphenyl)benzooxazol-7-yl]ethoxy}phenyl)propionic Acid], the melting point was in the range of 142 to 144 °C.

With `CCc1cc(OC(C)c2cccc3nc(-c4ccc(C(F)(F)F)cc4)oc23)ccc1CCC(=O)O` (racemic) [Example 84, (+/−)-3-(2-Ethyl-4-{1-[2-(4-trifluoromethylphenyl)benzooxazol-7-yl]ethoxy}phenyl)propionic Acid], the melting point lay in the range of 60 to 63 °C.

The molecule `CCc1cc(SCc2cccc3sc(-c4ccc(C(F)(F)F)cc4)nc23)ccc1OCC(=O)O` [Example 40] came in with a melting point of 89 to 92 °C.

As for `O=C(O)Cc1cccc(SCc2cccc3sc(-c4ccc(C(F)(F)F)cc4)nc23)c1` [Example 41], the melting point was in the range of 140 to 143 °C.

In the case of `O=C(O)Cc1csc2cc(OCc3cccc4sc(-c5ccc(C(F)(F)F)cc5)nc34)ccc12` [Example 42, 6-[2-(4-Trifluoromethylphenyl)benzothiazol-4-ylmethoxy]benzo[b]thiophen-3-ylacetic Acid], the melting point lay in the range of 185 to 190 °C.

The molecule `O=C(O)Cc1csc2cc(SCc3cccc4sc(-c5ccc(C(F)(F)F)cc5)nc34)ccc12` [Example 43] displayed a melting point of 168 to 170 °C.

Regarding `Cc1cc(SCc2cccc3nc(-c4ccc(C(F)(F)F)cc4)sc23)ccc1OCC(=O)O` [Example 44, 2-Methyl-4-[2-(4-trifluoromethylphenyl)benzothiazol-7-ylmethylsulfanyl]phenoxyacetic Acid], the melting point was in the range of 193 to 196 °C.

`CCc1cc(SCc2cccc3nc(-c4ccc(C(F)(F)F)cc4)sc23)ccc1OCC(=O)O` [Example 45, 2-Ethyl-4-[2-(4-trifluoromethylphenyl)benzothiazol-7-ylmethylsulfanyl]phenoxyacetic Acid] displayed a melting point of 160 to 164 °C.

In turn, `Cc1cc(SCc2cccc3nc(-c4ccc(C(F)(F)F)cc4)sc23)ccc1CCC(=O)O` [Example 46, 3-{2-Methyl-4-[2-(4-trifluoromethylphenyl)benzothiazol-7-ylmethylsulfanyl]phenyl}propionic Acid] displayed a melting point of 136 to 139 °C.

For the molecule `O=C(O)Cc1csc2cc(SCc3cccc4nc(-c5ccc(C(F)(F)F)cc5)sc34)ccc12` [Example 47, 6-[2-(4-Trifluoromethylphenyl)benzothiazol-7-ylmethylsulfanyl]benzo[b]thiophen-3-ylacetic Acid], the melting point lay in the range of 201 to 204 °C.

Molecule `Cc1cc(SCCc2cccc3sc(-c4ccc(C(F)(F)F)cc4)nc23)ccc1OCC(=O)O` [Example 48, 2-Methyl-4-{2-[2-(4-trifluoromethylphenyl)benzothiazol-4-yl]ethylsulfanyl}phenoxyacetic Acid] registered a melting point of 97 to 100 °C.

On to `Cc1cc(SCCc2cccc3sc(-c4ccc(C(F)(F)F)cc4)nc23)ccc1CCC(=O)O` [Example 49, 3-(2-Methyl-4-{2-[2-(4-trifluoromethylphenyl)benzothiazol-4-yl]ethylsulfanyl}phenyl)propionic Acid], for which the melting point fell in the range of 118 to 120 °C.

`CCc1cc(SCCc2cccc3sc(-c4ccc(C(F)(F)F)cc4)nc23)ccc1OCC(=O)O` [Example 50, 2-Ethyl-4-{2-[2-(4-trifluoromethylphenyl)benzothiazol-4-yl]ethylsulfanyl}phenoxyacetic Acid] gave a melting point of 84 to 86 °C.

In turn, `Cc1cc(SCc2ccc3sc(-c4ccc(C(F)(F)F)cc4)nc3c2)ccc1OCC(=O)O` [Example 51, 2-Methyl-4-[2-(4-trifluoromethylphenyl)benzothiazol-5-ylmethylsulfanyl]phenoxyacetic Acid] registered a melting point of 138 to 140 °C.

Molecule `Cc1cc(SCc2ccc3sc(-c4ccc(C(F)(F)F)cc4)nc3c2)ccc1CCC(=O)O` [Example 52, 3-{2-Methyl-4-[2-(4-trifluoromethylphenyl)benzothiazol-5-ylmethylsulfanyl]phenyl}propionic Acid] displayed a melting point of 141 to 143 °C.

Regarding `CCc1cc(SCc2ccc3sc(-c4ccc(C(F)(F)F)cc4)nc3c2)ccc1OCC(=O)O` [Example 53, 2-Ethyl-4-[2-(4-trifluoromethylphenyl)benzothiazol-5-ylmethylsulfanyl]phenoxyacetic Acid], the melting point lay in the range of 140 to 142 °C.

Regarding `Cc1cc(OCc2ccc3sc(-c4ccc(C(F)(F)F)cc4)nc3c2)ccc1CCC(=O)O` [Example 54, 3-{2-Methyl-4-[2-(4-trifluoromethylphenyl)benzothiazol-5-ylmethoxy]phenyl}propionic Acid], the melting point fell in the range of 174 to 176 °C.

Regarding `CCc1cc(OCc2ccc3sc(-c4ccc(C(F)(F)F)cc4)nc3c2)ccc1CCC(=O)O` [Example 55, 3-{2-Ethyl-4-[2-(4-trifluoromethylphenyl)benzothiazol-5-ylmethoxy]phenyl}propionic Acid], the melting point was in the range of 188 to 190 °C.

Consider `Cc1cc(SCCc2ccc3sc(-c4ccc(C(F)(F)F)cc4)nc3c2)ccc1CCC(=O)O` [Example 56, 3-(2-Methyl-4-{2-[2-(4-trifluoromethylphenyl)benzothiazol-5-yl]ethylsulfanyl}phenyl)propionic Acid], for which the melting point lay in the range of 108 to 110 °C.

For `Cc1cc(SCc2ccc3nc(-c4ccc(C(F)(F)F)cc4)sc3c2)ccc1OCC(=O)O` [Example 57, 2-Methyl-4-[2-(4-trifluoromethylphenyl)benzothiazol-6-ylmethylsulfanyl]phenoxyacetic Acid], the melting point lay in the range of 176 to 177 °C.

The molecule `Cc1cc(SCc2ccc3nc(-c4ccc(C(F)(F)F)cc4)sc3c2)ccc1CCC(=O)O` [Example 58, 3-{2-Methyl-4-[2-(4-trifluoromethylphenyl)benzothiazol-6-ylmethylsulfanyl]phenyl}propionic Acid] yielded a melting point of 194 to 196 °C.

Consider `CCc1cc(SCc2ccc3nc(-c4ccc(C(F)(F)F)cc4)sc3c2)ccc1OCC(=O)O` [Example 59, 2-Ethyl-4-[2-(4-trifluoromethylphenyl)benzothiazol-6-ylmethylsulfanyl]phenoxyacetic Acid], for which the melting point lay within 144 to 147 °C.

In turn, `Cc1cc(OCc2ccc3nc(-c4ccc(C(F)(F)F)cc4)sc3c2)ccc1CCC(=O)O` [Example 60, 3-{2-Methyl-4-[2-(4-trifluoromethylphenyl)benzothiazol-6-ylmethoxy]phenyl}propionic Acid] returned a melting point of 198 to 200 °C.

Take `CCc1cc(OCc2ccc3nc(-c4ccc(C(F)(F)F)cc4)sc3c2)ccc1CCC(=O)O` [Example 61, 3-{2-Ethyl-4-[2-(4-trifluoromethylphenyl)benzothiazol-6-ylmethoxy]phenyl}propionic Acid]: the melting point is 203 to 205 °C.

Take `Cc1cc(SCc2cccc3oc(-c4ccc(C(F)(F)F)cc4)nc23)ccc1OCC(=O)O` [Example 65, 2-Methyl-4-[2-(4-trifluoromethylphenyl)benzooxazol-4-ylmethylsulfanyl]-phenoxyacetic Acid]: the melting point is 160 to 162 °C (dec.).

Turning to `Cc1cc(SCc2cccc3oc(-c4ccc(C(F)(F)F)cc4)nc23)ccc1CCC(=O)O` [Example 66, 3-2-Methyl-4-[2-(4-trifluoromethylphenyl)benzooxazol-4-ylmethylsulfanyl]phenylpropionic Acid], the melting point lay within 181 to 183 °C.

Regarding `CCc1cc(SCc2cccc3oc(-c4ccc(C(F)(F)F)cc4)nc23)ccc1OCC(=O)O` [Example 67, 2-Ethyl-4-[2-(4-trifluoromethylphenyl)benzooxazol-4-ylmethylsulfanyl]phenoxyacetic Acid], the melting point lay within 127 to 128 °C.

On to `Cc1cc(SCc2cccc3nc(-c4ccc(C(F)(F)F)cc4)oc23)ccc1OCC(=O)O` [Example 68, 2-Methyl-4-[2-(4-trifluoromethylphenyl)-benzooxazol-7-ylmethylsulfanyl]-phenoxyacetic Acid], for which the melting point was in the range of 180 to 182 °C.
